Values of other authors, collected in publication PMC9006653 (The Journal of Biological Chemistry, 2022).

Key:
[1] = system: 10 human tumor cell lines

cycloviolacin O2 [cyO2]
fold more potent (cytotoxicity) compared to varv A and varv F [1]: over 20 fold
fold more active than 11 Möbius cyclotides (five cancer cell lines): over ten-fold
